Measurements taken from ChEMBL document CHEMBL1155009, “7-Aminopyrazolo[1,5-a]pyrimidines as potent multitargeted receptor tyrosine kinase inhibitors” (J Med Chem, 2008).

What was measured:
[1] = molecular target: T1, Vascular endothelial growth factor receptor 2 (Homo sapiens, UniProt P35968)
Description: Inhibition of KDR by HTRF assay

Mus musculus [2] = assay: Inhibition of estradiol-induced uterine edema in BALB/c mouse at 10 mg/kg, po administered 30 mins prior to 17-beta-estradiol challenge after 2 hrs; details: read-out: INH
Mus musculus [3] = assay: Half life in CD1 mouse at 3 mg/kg, iv; assay type: ADME, organism-based; design: dose 3 mg/kg, route intravenous; details: in vivo
[4] = Cmax in CD1 mouse at 10 mg/kg, po; assay type: ADME, organism-based; design: dose 10 mg/kg, route oral; details: in vivo
[5] = AUC in CD1 mouse at 10 mg/kg, po; assay type: ADME, organism-based; design: dose 10 mg/kg, route oral; details: plasma
[6] = molecular target: T1, Vascular endothelial growth factor receptor 2; assay: Inhibition of human KDR phosphorylation expressed in mouse NIH3T3 cells by ELISA; assay type: cell-based
Mus musculus [7] = assay: Volume of distribution in CD1 mouse at 3 mg/kg, iv; assay type: ADME, organism-based; design: dose 3 mg/kg, route intravenous; details: in vivo
[8] = AUC in CD1 mouse at 3 mg/kg, iv; assay type: ADME, organism-based; design: dose 3 mg/kg, route intravenous; details: plasma
[9] = Oral bioavailability in CD1 mouse at 10 mg/kg; assay type: ADME, organism-based; details: in vivo

T1 sequence (P35968 whole entry): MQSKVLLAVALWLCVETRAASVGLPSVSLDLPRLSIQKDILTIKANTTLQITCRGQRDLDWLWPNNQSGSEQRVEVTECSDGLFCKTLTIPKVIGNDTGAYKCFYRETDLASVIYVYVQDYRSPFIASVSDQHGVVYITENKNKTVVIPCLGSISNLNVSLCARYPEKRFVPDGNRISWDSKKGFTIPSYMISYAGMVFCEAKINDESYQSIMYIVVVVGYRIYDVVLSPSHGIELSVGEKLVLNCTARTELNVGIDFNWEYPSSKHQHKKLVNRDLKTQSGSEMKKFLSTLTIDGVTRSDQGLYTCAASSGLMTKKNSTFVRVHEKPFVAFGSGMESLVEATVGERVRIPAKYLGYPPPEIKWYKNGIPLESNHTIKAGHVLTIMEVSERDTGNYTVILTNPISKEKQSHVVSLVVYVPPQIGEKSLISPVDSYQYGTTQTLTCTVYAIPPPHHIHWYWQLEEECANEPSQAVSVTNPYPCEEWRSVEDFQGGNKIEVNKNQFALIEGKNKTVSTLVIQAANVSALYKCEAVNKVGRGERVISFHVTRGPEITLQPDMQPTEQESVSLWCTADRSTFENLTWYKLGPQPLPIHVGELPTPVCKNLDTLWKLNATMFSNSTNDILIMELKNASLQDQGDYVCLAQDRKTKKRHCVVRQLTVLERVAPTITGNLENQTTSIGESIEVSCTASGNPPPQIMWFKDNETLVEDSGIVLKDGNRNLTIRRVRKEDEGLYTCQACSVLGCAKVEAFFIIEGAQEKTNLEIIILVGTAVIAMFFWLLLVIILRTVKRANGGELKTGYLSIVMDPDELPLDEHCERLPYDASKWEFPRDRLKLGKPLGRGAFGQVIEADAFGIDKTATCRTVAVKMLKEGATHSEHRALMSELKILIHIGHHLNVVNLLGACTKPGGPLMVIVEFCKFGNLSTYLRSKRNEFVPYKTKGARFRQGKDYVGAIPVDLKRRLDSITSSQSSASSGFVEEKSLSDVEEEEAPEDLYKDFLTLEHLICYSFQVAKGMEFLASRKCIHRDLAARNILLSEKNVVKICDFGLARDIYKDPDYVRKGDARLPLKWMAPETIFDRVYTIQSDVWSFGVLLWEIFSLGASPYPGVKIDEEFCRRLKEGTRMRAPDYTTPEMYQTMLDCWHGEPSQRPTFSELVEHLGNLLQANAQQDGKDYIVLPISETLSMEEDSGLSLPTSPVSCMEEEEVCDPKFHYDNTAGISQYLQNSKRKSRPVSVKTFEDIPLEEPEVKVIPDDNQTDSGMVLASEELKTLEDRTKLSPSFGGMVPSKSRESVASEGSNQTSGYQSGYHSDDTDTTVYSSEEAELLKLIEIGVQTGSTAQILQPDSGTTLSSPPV

Compound `COc1ccc(-c2cnc3c(Br)cnn3c2N)cc1` has an IC50 [1] greater than 12.5 µM.
Compound `Nc1c(-c2ccccc2)cnc2c(Br)cnn12` has an IC50 [1] greater than 12.5 µM.
`Nc1c(-c2ccc(NC(=O)Nc3cccc(Cl)c3)cc2)cnc2ccnn12` gave an IC50 [1] of 0.044 µM.
`Cc1ccc(F)c(NC(=O)Nc2ccc(-c3cnc4ccnn4c3N)cc2)c1` gave an IC50 [1] of 0.074 µM.
With `COc1ccc(-c2cnc3c(-c4ccsc4)cnn3c2N)cc1` the IC50 [1] was 6.1 µM.
Compound `Cn1cc(-c2ccn3c(N)c(-c4ccc(NC(=O)Nc5cccc(Cl)c5)cc4)cnc23)cn1` has an inhibition in vivo at 10 mg/kg (Mus musculus [2]) of 27%.
Work on `Cc1cccc(NC(=O)Nc2ccc(-c3cnc4c(C#N)cnn4c3N)cc2)c1` yielded an IC50 [1] of 0.93 µM.
Work on `Cn1cc(-c2ccn3c(N)c(-c4ccc(NC(=O)Nc5ccc(F)c(C(F)(F)F)c5)cc4)cnc23)cn1` yielded an inhibition in vivo at 10 mg/kg (Mus musculus [2]) of less than 15%.
For `CCN(CC)CCNC(=O)c1cnn2c(N)c(-c3ccc(NC(=O)Nc4cccc(C)c4)cc3)cnc12`, the IC50 [1] was 0.5 µM.
In the case of `Cc1cccc(NC(=O)Nc2ccc(-c3cnc4cc(C)nn4c3N)cc2)c1`, the IC50 [1] is reported as 3.5 µM.
Compound `Cc1cccc(NC(=O)Nc2ccc(-c3cnc4cc(-c5ccccc5)nn4c3N)cc2)c1` has an IC50 [1] greater than 12.5 µM.
In the case of `Cc1ccccc1NC(=O)Nc1ccc(-c2cnc3c(Br)cnn3c2N)cc1`, the IC50 [1] is reported as greater than 12.5 µM.
In the case of `Cc1ccc(NC(=O)Nc2ccc(-c3cnc4c(Br)cnn4c3N)cc2)cc1`, the IC50 [1] is reported as 0.81 µM.
For `Cc1cccc(NC(=O)Nc2ccc(-c3cnc4c(Br)cnn4c3)cc2)c1`, the IC50 [1] was greater than 12.5 µM.
`Cc1cccc(NC(=O)Nc2ccc(-c3cnc4c(C(=O)O)cnn4c3N)cc2)c1` showed an IC50 [1] of 2 µM.
`Cc1cccc(NC(=O)Nc2ccc(-c3cnc4c(C(=O)N5CCN(C)CC5)cnn4c3N)cc2)c1` showed an IC50 [1] of 0.79 µM.
With `Nc1ccc(-c2cnc3c(Br)cnn3c2N)cc1` the IC50 [1] was greater than 12.5 µM.
`Cc1cccc(NC(=O)Nc2cccc(-c3cnc4ccnn4c3N)c2)c1` gave an IC50 [1] of 6.6 µM.
`Cc1cccc(NC(=O)Nc2ccc(-c3cnc4c(-c5cnn(C)c5)cnn4c3N)cc2)c1` showed an inhibition in vivo at 10 mg/kg (Mus musculus [2]) of 49%, a t1/2 (Mus musculus [3]) of 15 min and a Cmax [4] of 360 nM. For the same compound, the AUC [5] was 810 ng·h/mL, the IC50 [1] was 0.004 µM and the IC50 [6] was 0.0007 µM. It also gave a Vd (Mus musculus [7]) of 1.4 L/kg, an AUC [8] of 1800 ng·h/mL and a bioavailability [9] of 14%.
Work on `Nc1c(-c2ccc(NC(=O)c3ccccc3)cc2)cnc2c(Br)cnn12` yielded an IC50 [1] greater than 12.5 µM.
Work on `CNC(=O)c1cnn2c(N)c(-c3ccc(NC(=O)Nc4cccc(C)c4)cc3)cnc12` yielded an IC50 [1] of 0.1 µM.
Compound `Cn1cc(-c2ccn3c(N)c(-c4ccc(NC(=O)Nc5cc(C(F)(F)F)ccc5F)cc4)cnc23)cn1` has an inhibition in vivo at 10 mg/kg (Mus musculus [2]) of 45%.
For `Nc1c(-c2ccc(NC(=O)Nc3ccccc3)cc2)cnc2c(Br)cnn12`, the IC50 [1] was 1.6 µM.
Compound `Cc1cccc(NC(=S)Nc2ccc(-c3cnc4ccnn4c3N)cc2)c1` has an IC50 [1] of 10 µM.
